Here are results for three compounds from article PMC9487543 (Antimicrobial Agents and Chemotherapy, 2022).

Read-outs that look alike come from different tables or passages of the source. Marks after values point to notes of the source that are not given here.

For data set [1] the following is noted: cited from earlier work.
A short description of data set [2]: Plasma pharmacokinetics in hemodialysis-dependent subjects, On-dialysis vs Off-dialysis periods. It is filed as in vivo, human. As to conditions: for AUC(0-inf) / Cmax / AUCinf / CL / VZ / t1/2: single 2 h IV infusion 2 g cefepime + 0.5 g taniborbactam; for AUC(0-inf) / Cmax / AUCinf / CL / VZ: geometric mean (geometric CV %); for t1/2: mean (SD). Here is the method:
(§1) In addition to the groups enrolled by renal function to study the effect of renal impairment, a group of subjects with ESRD undergoing chronic intermittent hemodialysis were enrolled into a separate group (Group 5; “Dialysis”) to determine the amounts of drug removed by filtration. Hemodialysis used standard commercial dialyzers and membranes. […] A fixed sequence of dialysis timing with respect to dose was used, where the dose was administered prior to dialysis in the first treatment period (“On-dialysis”; Period 1) and administered following dialysis in the second treatment period (“Off-dialysis”; Period 2). […] For the Off-dialysis period, subjects had the SOI begin approximately 6 h after the start of dialysis, which was after the dialysis had been completed.
Additional blood samples, if not already collected by a defined time point, were collected at 1 h after the start of dialysis and again at the end of dialysis.
Human dipotassium ethylenediaminetetraacetic acid plasma samples were processed using protein precipitation prior to assay. Urine samples collected for pharmacokinetic analysis in the study were processed and assayed for only taniborbactam using a validated bioanalytical method. […] Acidified urine and dialysate samples were processed using solid-phase extraction prior to assay. […]
Estimated plasma pharmacokinetic parameters included the Cmax, time to Cmax (Tmax), AUC through the last measurable observed concentration (AUCt), AUCinf, t1/2, CL, and VZ. For taniborbactam, using the urine observations, the amount excreted unchanged in urine (Ae), fraction excreted unchanged in urine as the percentage of administered dose (Fe), renal clearance (CLR), and nonrenal clearance (CLNR) were calculated. The actual sample times were used to calculate the pharmacokinetic parameters. […] If a good estimate of λZ could not be determined for a concentration-time profile, then none of the pharmacokinetic parameters dependent on λZ were calculated.
(§2) For Dialysis subjects (Group 5), the effect of hemodialysis was examined by comparing differences within each subject (On-Dialysis versus Off-Dialysis). The CLd was calculated by taking the individual averaged arterial to venous concentration extraction ratio (CER), multiplying by the reported Qb, and correcting for hematocrit (hct). The hct was estimated as 0.47, an assumption based on the fact that all subjects in the group were male. The amounts of drug removed by hemodialysis (Adial) were calculated using the area under the excretion rate curves, where the rates were determined using the spot dialysis concentrations and estimated dialysate volumes over a 1 min period using the Qd. The fraction of drug removed during hemodialysis, or HER, was then determined by dividing Adial by dose and was expressed as a percentage.

The nature of data set [3]: Safety and tolerability in subjects with various degrees of renal impairment. Conditions: human, in vivo. The protocol: Safety was assessed based on the occurrence of adverse events and on the evaluation of laboratory tests (chemistry, hematology, urinalysis, and coagulation), physical examinations, vital signs, and 12-lead ECGs. Safety was followed through 7 days post-dose.

Data set [4] can be described thus: Dialysis parameters (dialysis clearance, hemodialysis extraction ratio). Format: in vivo, human. Here is the method:
as §1
Human dipotassium ethylenediaminetetraacetic acid plasma samples were processed using protein precipitation prior to assay. Urine samples collected for pharmacokinetic analysis in the study were processed and assayed for only taniborbactam using a validated bioanalytical method. […] Acidified urine and dialysate samples were processed using solid-phase extraction prior to assay.
(§3) Validated LC-MS/MS methods (LLOQ = 5.00 ng/mL) were used to quantitate the concentrations of taniborbactam in urine.
as §2

For data set [5], the system named is Ambler Class A, C, and D serine-β-lactamases, and the Ambler class B metallo-β-lactamases. As to conditions: including VIM and NDM; cited from earlier work.
Data set [6] in a line: Urine pharmacokinetics (renal clearance) of taniborbactam by renal group. It is filed as in vivo, human. As to conditions: single 2 h IV infusion 2 g cefepime + 0.5 g taniborbactam, geometric mean (geometric CV %). Here is the method: Urine was collected to further assess taniborbactam pharmacokinetics. Subjects were instructed to empty their bladders completely before study drug administration and just before the end of each collection interval. Urine from each timed interval was collected in a separate container. The exact start dates, stop dates, times of urine collection, and the weight and volume of each collection were recorded. Urine samples were collected within intervals of 0 to 6 h, 6 to 12 h, 12 to 24 h, 24 to 48 h, 48 to 72 h, and 72 to 96 h following the SOI. […] Urine samples were not collected from anuric subjects.
[…]. […] […].

The conditions of data set [7]: human, in vivo.
Description: Subjects aged 18 to 80 years were enrolled into 1 of 4 groups based on the level of renal function (renal groups). […] Subjects in the Normal group were matched to subjects with renal impairment with regard to gender, age (±10 years), and weight (±10 kg). A single healthy subject may have been the match for more than one subject with renal impairment.
Human dipotassium ethylenediaminetetraacetic acid plasma samples were processed using protein precipitation prior to assay. Urine samples collected for pharmacokinetic analysis in the study were processed and assayed for only taniborbactam using a validated bioanalytical method. […]
as §3
Estimated plasma pharmacokinetic parameters included the Cmax, time to Cmax (Tmax), AUC through the last measurable observed concentration (AUCt), AUCinf, t1/2, CL, and VZ. For taniborbactam, using the urine observations, the amount excreted unchanged in urine (Ae), fraction excreted unchanged in urine as the percentage of administered dose (Fe), renal clearance (CLR), and nonrenal clearance (CLNR) were calculated. […] If a good estimate of λZ could not be determined for a concentration-time profile, then none of the pharmacokinetic parameters dependent on λZ were calculated. […]

The mark [8] stands for this setting: Dialysis group, Off-dialysis (n = 7).
[9] abbreviates: Dialysis group, On-dialysis (n = 6).

For orientation: AUC(0-inf) means total exposure, with the tail of the curve extrapolated. Consider `CO/N=C(\C(=O)N[C@@H]1C(=O)N2C(C(=O)[O-])=C(C[N+]3(C)CCCC3)CS[C@H]12)c1csc(N)n1` [cefepime, Cefepime, reference compound], for which the “amount removed during a hemodialysis session” value in data set [1] (3 h hemodialysis session) was “approximately 68%”. Also, the “dose excreted unchanged in urine” value in data set [1] (following administration of 0.25 to 2 g cefepime) was “at least 80%”. Moreover, the total exposure AUC(0-inf) in data set [2] (male, human, plasma, iv, Dialysis group, Off-dialysis (n = 7)) stood at 4550 µg·h/mL; in data set [2] (male, human, plasma, iv, Dialysis group, On-dialysis (n = 6)), 1600 µg·h/mL. Besides, the Cmax came out at 165 µg/mL in data set [2] (male, human, plasma, iv, Dialysis group, Off-dialysis (n = 7), read-out: Cmax) and 105 µg/mL in data set [2] (male, human, plasma, iv, Dialysis group, On-dialysis (n = 6), read-out: Cmax).

Take cefepime-taniborbactam: in data set [3], the “adverse events considered related to treatment” value was 7 of 8, the “adverse events mild in severity” value was 7 of 8, the deaths result is listed as “no deaths” and the “number of treatment emergent adverse events” value amounted to 8. Besides, in data set [3], the serious adverse events entry was “No subjects experienced serious adverse events” and the “subjects who experienced treatment emergent adverse events” value is given as 7 subjects.

For `NCCN[C@H]1CC[C@H](CC(=O)N[C@H]2Cc3cccc(C(=O)O)c3OB2O)CC1` [taniborbactam, Taniborbactam], in data set [4] (On-dialysis period, 4 h hemodialysis session), the “hemodialysis extraction ratio (HER), fraction of dose removed during hemodialysis, mean (SD)” value was found to be 49.7%. For the same compound, in data set [4] (On-dialysis period, 4 h hemodialysis, Qb 350 to 450 mL/min), the “dialysis clearance (CLd), mean (SD)” value is listed as 102 (5.3) mL/min. The dialyzability entry in data set [4] (hemodialysis) is reported as “dialyzable”. Moreover, in data set [5], the β-lactamase inhibition entry is “potent competitive inhibition”. Besides, the CLR in data set [6] (Mild renal impairment (n = 6)) is on record as 4.23 (22.7) L/h. Also, the CLR in data set [6] (Moderate renal impairment (n = 6)) is recorded as 1.59 (21.0) L/h. For the same compound, the CLR in data set [6] (Normal renal function (n = 7)) is listed as 4.37 (17.8)^d L/h. Also, the CLR in data set [6] (Severe renal impairment (n = 6)) is 0.76 (120.3) L/h. In addition, in data set [1] (at steady-state), the “dose recovered in urine as unchanged parent compound” value is “approximately 89%”. The “VZ least-square geometric mean ratio (90% CI)” value in data set [7] is on record as 149.94%. In addition, in data set [2] (setting [8]), the AUCinf is on record as 2003 (32.1) h·μg/mL, the CL was 0.245 (29.8) L/h, the Cmax is 37.7 (73.7) μg/mL and the VZ is 23.7 (13.4) L. The t1/2 in data set [2] (setting [8]) is 70.8 (22.3) h. Also, in data set [2] (setting [9]), the AUCinf was 851 (23.0) h·μg/mL, the CL is listed as 0.579 (23.0) L/h, the Cmax is listed as 23.4 (9.5) μg/mL and the VZ is reported as 68.1 (15.1) L. Moreover, in data set [2] (setting [9]), the t1/2 is reported as 83.7 (21.5) h. Moreover, the “decrease in geometric mean AUC following hemodialysis” value in data set [2] (Dialysis group, On-dialysis vs Off-dialysis) is on record as 58%. Also, the “AUCinf least-squares GMR (90% CI)” value in data set [2] (On-dialysis/Off-dialysis) amounted to 39.29%.
